Drawing on PubChem BioAssay AID2305 (GlaxoSmithKline (GSK), 2010), this text covers IC50 for 89 molecules.

SMILES strings stand for the structures. pIC50: −log10 of the molar value.

The subject of the experiment is P. falciparum 3D7 growth, pLDH absorbance. Nature of the experiment: blood-stage malaria parasite growth potency – strain 3D7, dose response (AID 2305).
In general, pIC50 refers to the IC50 on a negative log10 scale, so that one unit is a factor of ten. Read a low pIC50 as a large IC50. The molecule `Nc1c2c(nc3cc(NC(=O)c4ccc([N+](=O)[O-])cc4)ccc13)CCCC2` gave a pIC50 of 6.33.

As to `CCCCCCCN1CCC(CCNc2ccnc3ccc(OC)cc23)CC1`, the pIC50 was 6.02.

As for `CC(Oc1cc(-n2cnc3ccc(NC(=O)CCN4CCCCC4)cc32)sc1C(N)=O)c1ccccc1Cl` (centres undefined), the pIC50 is 6.40.

Regarding `NC1=NC2(CCCCC2)N(OCCCCCCCCNc2nc(N)nc(N)n2)C(N)=N1`, the pIC50 is 7.22.

In turn, `Cc1ccc(-c2cc(C(=O)Nc3ccc(S(=O)(=O)N4CCCCC4C)cc3)[nH]n2)c(O)c1` (centres undefined) showed a pIC50 of 5.97.

Turning to `c1nc2nc3c(c(Nc4ccc5c(c4)CCC5)n2n1)CCC3`, the pIC50 was 6.04.

As for `CN(C)S(=O)(=O)n1ccc2c3c(N)nc(N)nc3ccc21`, the pIC50 was 7.30.

On to `Cc1cccc(/C=C/C(=O)NC2CCC(N3CCC(c4ccccc4C)CC3)CC2)c1` (centres undefined), for which the pIC50 is 5.95.

Molecule `C=CCCCNCC(NCCCNc1cc(=O)c2ccccc2[nH]1)c1cc(Br)cc(Br)c1` (centres undefined) had a pIC50 of 6.05.

`O=C1c2ccccc2CN1CCCN1CCC(Oc2ccc(F)cc2)CC1` had a pIC50 of 5.92.

Molecule `COc1cccc(-c2ccc(NC(=O)C3CCCN(Cc4cccc(OC)c4O)C3)cc2)c1` (centres undefined) gave a pIC50 of 6.07.

Consider `CCCCCCCN1CC[C@@H](CCCc2ccnc3ccc(OCCCCNC(N)=O)cc23)[C@@H](CC)C1`, for which the pIC50 was 6.08.

Turning to `COC(=O)c1ccc2nc(-c3ccc(C(=O)NC4CCN(Cc5ccccc5)CC4)s3)[nH]c2c1`, the pIC50 was 6.16.

`COCCNCc1cccc(-c2ccc3c(Nc4ccc(F)cc4Cl)ccnc3c2)c1` gave a pIC50 of 6.17.

In the case of `Cc1cc2ccc(CNCCc3ccccc3Br)cc2nc1N`, the pIC50 was 6.29.

`Nc1ncc(-c2ccc(NC(=O)Nc3cc(C(F)(F)F)ccc3F)cc2)c(N)n1` had a pIC50 of 6.14.

On to `Cc1cccc(-c2ccc(NC(=O)C3CCN(Cc4cccc(O)c4)CC3)cc2)c1`, for which the pIC50 was 6.01.

For `CCN(CC)CCCN(CCCN(CC)CC)c1cc(C)nc(Nc2ccc3cc(Br)ccc3c2)n1`, the pIC50 was 6.24.

`O=C(CCCCCNC(=O)c1ccc(O)c(-c2ccc(Cl)c(Cl)c2)c1)NC1CCCc2ccccc21` (centres undefined) showed a pIC50 of 6.12.

As to `Cn1cccc1C(=O)C(=O)Nc1ccc(-c2ccc(-c3nc4ccc(F)cc4[nH]3)cc2)cc1`, the pIC50 is 6.08.

Turning to `Cc1[nH]c2ccccc2c1C1=CCN(CCCCCC23CCCc4cccc(c42)NC3=O)CC1` (centres undefined), the pIC50 is 6.60.

Molecule `COc1cc2nc(N3CCC(CNC(=O)c4ccc(-c5ccc(C(=O)N(C)C)cc5OCCO)cc4)CC3)nc(N)c2cc1OC` had a pIC50 of 6.19.

Regarding `CC(=O)NCCNc1cc(N2CCc3ncnc(Nc4ccc(OCc5c(F)cccc5F)c(Cl)c4)c3C2)ncn1`, the pIC50 was 6.80.

`COc1ccc(C=NNc2ccnc3ccccc23)c2ccccc12` showed a pIC50 of 6.15.

Turning to `N#Cc1cc([N+](=O)[O-])ccc1-n1nc(-c2cccc(Cl)c2)n(Cc2ccco2)c1=S`, the pIC50 was 6.70.

In turn, `O=C(c1ccco1)c1cn(CCOc2ccccc2)c2ccccc12` had a pIC50 of 6.12.

Molecule `CCOc1ccccc1NC(=O)C(Sc1nc(C)cc(C)c1C#N)c1ccccc1` (centres undefined) gave a pIC50 of 6.43.

The molecule `CC(=O)c1ccc(NC(=O)Nc2ccc(N(C)c3ccnc(NC4CC4)n3)cc2)cc1` gave a pIC50 of 6.10.

The molecule `CC(C)CCN1CCC(Oc2ccc(NC(=O)c3ccc4ncccc4c3)cc2Cl)C1` (centres undefined) gave a pIC50 of 6.01.

Take `Cc1cccc(Cn2c(C(N)=O)nn(-c3ccc([N+](=O)[O-])cc3C#N)c2=S)c1`: the pIC50 is 6.14.

In the case of `CN1CCN(c2ccnc3ccc(NC(=O)c4ccc(Cl)c(Cl)c4)cc23)CC1`, the pIC50 was 6.15.

In turn, `O=C(/C=C/c1ccc(Cl)c(Cl)c1)NCCCCCN1CCCN(C(=O)Nc2cc(F)cc(F)c2)CC1` gave a pIC50 of 6.11.

`O=c1cc(NCCCNC2CCOc3c(Cl)cccc32)[nH]c2ccccc12` (centres undefined) showed a pIC50 of 6.08.

In turn, `COc1cccc(C=Cc2nc(=O)c3ccccc3o2)c1OC` gave a pIC50 of 7.22.

`Cc1ccc2[nH]c(C3CCCNC3)c(-c3ccncc3)c2c1` (centres undefined) showed a pIC50 of 5.91.

`CCc1ccc(NC(=O)c2ccc(CN3CCCN(Cc4cccc(Cl)c4)CC3)cc2)cc1` had a pIC50 of 5.95.

`NC(=O)c1cc2nc(Nc3ccc(F)cc3)nc(Nc3ccc(S(N)(=O)=O)cc3)c2[nH]1` showed a pIC50 of 6.10.

Molecule `O=C(N[C@@H](Cc1ccccc1)C(=O)NC1CCCCCC1)c1ccc(O)c(-c2ccc(Cl)c(Cl)c2)c1` had a pIC50 of 6.48.

Take `CCN(CC)c1ccc(C(c2ccc(N(CC)CC)cc2)c2ccc([N+](=O)[O-])cc2)cc1`: the pIC50 was 6.02.

Regarding `O=C(c1cccc(-c2cccc(-c3nc4ccc(C(F)(F)F)cc4[nH]3)c2)c1)N1CCCCC1CN1CCC(O)C1` (centres undefined), the pIC50 was 6.55.

On to `COc1cc(C(=O)N2CC[C@@H](CCN3CCC4(CC3)CN(S(C)(=O)=O)c3ccccc34)C[C@H]2Cc2ccc(Cl)c(Cl)c2)cc(OC)c1OC`, for which the pIC50 is 6.08.

The molecule `CCC(C)NC(=O)CN1CN(c2ccccc2)C2(CCN(C(=O)c3ccc(C(C)(C)C)cc3)CC2)C1=O` (centres undefined) gave a pIC50 of 6.89.

`Cc1cc(N2CCN(CC3CCN(C)CC3)CC2)nc(Nc2ccc(Cl)cc2)n1` showed a pIC50 of 6.15.

`Cc1nc(-c2ccc(-c3ccc(C(=O)Nc4ccc(I)c(OCC5CCCN5C)c4)cc3)c(C)c2)no1` (centres undefined) had a pIC50 of 7.52.

As for `Cc1cc(N)cc2[nH]c(-c3ccc(N)cc3)nc12`, the pIC50 is 6.05.

Regarding `N#Cc1cccc(NC(=O)Nc2ccc(CC(=O)N3CCc4cc(Cl)c(N5CCN(C/C=C/c6ccccc6)CC5)cc43)cc2)c1`, the pIC50 is 6.06.

The molecule `CC[C@H](NC(=O)c1c(CN2CCC(N3CCCCC3)CC2)c(-c2ccccc2)nc2c(Cl)c(O)ccc12)c1ccccc1` showed a pIC50 of 6.14.

Consider `CN(C)c1ccc(NC(=O)Nc2ccnc3ccc(Br)cc23)cc1`, for which the pIC50 is 6.06.

Consider `Cc1nc(-c2ccc(-c3ccc(C(=O)Nc4ccc(I)c(OCCN5CCCC5)c4)cc3)c(C)c2)no1`, for which the pIC50 is 6.02.

Molecule `c1cnc2ccc(NCc3ccc(-c4ccc(CNC5CCCC5)cc4)cc3)cc2c1` had a pIC50 of 6.06.

Turning to `NC1=NC2(CCCCC2)N(OCCCCCCc2ccccc2)C(N)=N1`, the pIC50 was 6.46.

In the case of `Oc1ccccc1N1CCN(c2ccc(-c3nc4ccccc4[nH]3)cn2)CC1`, the pIC50 was 5.95.

`Cc1cc(NC(=O)c2ccsc2)ccc1OC1CCN(Cc2ccc(F)cc2)CC1` showed a pIC50 of 5.91.

`O=C(Nc1ccc(C(F)(F)F)cc1)c1ccc(S(=O)(=O)NC2CCN(CC3CCCCC3)CC2)cc1` showed a negative-log IC50 (pIC50) of 6.14.

For the molecule `COc1cc(CCON2C(N)=NC(N)=NC2(C)C)cc(OC)c1OC`, the pIC50 was 7.30.

The molecule `O=C(Nc1cccc(CN2CCCN(Cc3ccc(O)cc3)CC2)c1)c1cccc(Cl)c1` had a pIC50 of 6.04.

For the molecule `Cc1c(CC(=O)N(C)C2CCN(CCCCCNC(=O)/C=C/c3ccc(Cl)c(Cl)c3)CC2)sc2ccc(Cl)cc12`, the pIC50 was 5.94.

For the molecule `NC1CCN(Cc2cccc(-c3ccc(-c4nc5ccccc5[nH]4)cc3)c2)C1` (centres undefined), the pIC50 is 6.08.

In the case of `COc1cccc2c(NCCNc3ccnc4c(OC)cccc34)ccnc12`, the pIC50 was 6.57.

Turning to `COc1ccc(N2C(=O)c3c(c4ccccc4n3C)C2c2ccccc2O)cc1` (centres undefined), the pIC50 is 6.92.

Take `COc1cc(C)nc2ccc(NC(=O)Nc3ccc4nc(C)cc(OC)c4c3)cc12`: the pIC50 was 6.26.

Molecule `Oc1ccc(CCNc2nc(NCc3ccccc3-c3ccc(F)cc3)nc(N3CCNCC3)n2)cc1` showed a pIC50 of 5.97.

In turn, `CCCCC1=CC2C(=O)C(C(=O)OC)=CN=C2C=C1OCc1ccccc1` (centres undefined) showed a pIC50 of 7.40.

`CCCCc1ccc(NC(=O)Nc2ccc3c(c2)CCNCC3)cc1` showed a pIC50 of 6.24.

Turning to `COc1ccc2c(NN=Cc3ccccc3F)cc(C)nc2c1`, the pIC50 is 6.00.

The molecule `c1ccc(CCNCc2ccc(-c3cccc(CNc4ccc5ncccc5c4)c3)cc2)cc1` gave a pIC50 of 6.03.

As for `CC(C)(CNCc1ccccc1)c1nc(-c2ccc(Cl)c(O)c2)c(-c2ccncc2)[nH]1`, the pIC50 is 6.27.

`Cc1cccc(C)c1CNc1ccnc2ccccc12` showed a pIC50 of 5.92.

The molecule `CCn1c(CN2CCN(Cc3ccccc3)CC2)nc2cc(NC(=O)c3cccs3)ccc21` showed a pIC50 of 6.40.

In turn, `Cc1nc2nc(N)nc(N)c2c(C)c1Cc1ccc(C(N)=O)cc1` had a pIC50 of 6.28.

In turn, `Cc1ccc2nc(NC#N)[nH]c2c1` showed a negative logarithm of the IC50 (pIC50) of 5.94.

In the case of `COc1cc2nc(NCCCOC(C)C)n3nc(-c4ccccc4)nc3c2cc1OC`, the pIC50 was 6.70.

Consider `COc1ccc2nccc([C@@H](O)CN3CCC(NC(=O)c4[nH]c5ccccc5c4-c4ccccc4)CC3)c2c1`, for which the pIC50 was 6.05.

`COc1cc(NC(=O)c2ccc3c(=O)n(Cc4ccccc4)c(=S)[nH]c3c2)cc(OC)c1OC` gave a pIC50 of 6.13.

`O=C(NCc1ccccc1)Nc1cccc(-c2cccc(-c3nc4ccc(C(F)(F)F)cc4[nH]3)c2)c1` showed a pIC50 of 6.59.

On to `Nc1ncc(-c2ccc3ncccc3c2)c(N)n1`, for which the pIC50 was 6.04.

For the molecule `O=C(Nc1ccc(Cl)cc1F)N[C@H]1CCN(CCCCCNC(=O)[C@@H]2C[C@H]2c2ccc(Cl)c(Cl)c2)C1`, the negative logarithm of the IC50 (pIC50) was 5.96.

`COc1cc(COc2c(C)nc(N)nc2N)cc(OC)c1OC` gave a pIC50 of 6.48.

In turn, `CCN(CC)CC(O)CNc1c2ccc([N+](=O)[O-])cc2nc2cc(OC)c(OC)cc12` (centres undefined) showed a pIC50 of 6.57.

In turn, `COc1ccc(S(=O)(=O)NC2CCN(CCCOc3ccnc4cc(Cl)ccc34)C2)cc1OC` (centres undefined) had a pIC50 of 5.98.

Turning to `Oc1ccc(CCNCCCCCCNCCc2ccc(-c3ccccc3)cc2)cc1O`, the pIC50 is 6.22.

Regarding `CCOC(=O)N1CCN(CCCCNc2c3ccc(Cl)cc3nc3ccc(OC)cc23)CC1`, the pIC50 was 6.92.

With `COc1ccc(-c2cnc3ccc(NCc4ccc(S(N)(=O)=O)cc4)nn23)cc1`, the pIC50 is 6.10.

`CN(C)c1ccc(CN2CCC(NC(=O)c3ccc(-c4cccc(F)c4)s3)CC2)cc1` gave a pIC50 of 5.83.

For `Oc1c(Cl)cc(-c2ccccc2)cc1CNC1CCCCC1`, the negative-log IC50 (pIC50) is 6.12.

Take `CNc1nc(NN=Cc2cc3c(cc2[N+](=O)[O-])OCO3)nc(Nc2cccc(C(F)(F)F)c2)n1`: the pIC50 is 6.11.

On to `N#Cc1ccnc(-c2ccc(CNC3CCN(CC4Cn5c(=O)ccc6ccc(F)c4c65)CC3)cc2)c1` (centres undefined), for which the pIC50 was 5.91.

`N#Cc1ccc2c(c1)CN(C1CCC(NC(=O)C3=Cc4cc(Cl)ccc4OC3)CC1)CCC2` (centres undefined): the pIC50 was 5.88.

Take `O=C(Nc1cc(Cl)cc(Cl)c1)Nc1ccccc1C(=O)NC1CCCCC1`: the pIC50 is 6.12.
